# In ChEMBL document CHEMBL1201862, “PubChem BioAssay data set” (2004):
# The source made the active and inactive calls.
# How the values were obtained:
# Cytochrome P450 2D6 = Cytochrome P450 2D6 (Homo sapiens, UniProt P10635);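 further: CYP2D6 member of a cytochrome P450 panel assay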
# [1] = molecular target: T1, Short transient receptor potential channel 4 (Mus musculus, UniProt Q9QUQ5); test: mouse TRPC4 channel inhibitors, dose response, cell-based, HEK293 TRPC4/mu-opioid, Fluo-4 calcium (AID 434942); format: functional;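 further: potency of inhibitors blocking the TRPC4 calcium response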
# T1 sequence (Q9QUQ5 whole entry): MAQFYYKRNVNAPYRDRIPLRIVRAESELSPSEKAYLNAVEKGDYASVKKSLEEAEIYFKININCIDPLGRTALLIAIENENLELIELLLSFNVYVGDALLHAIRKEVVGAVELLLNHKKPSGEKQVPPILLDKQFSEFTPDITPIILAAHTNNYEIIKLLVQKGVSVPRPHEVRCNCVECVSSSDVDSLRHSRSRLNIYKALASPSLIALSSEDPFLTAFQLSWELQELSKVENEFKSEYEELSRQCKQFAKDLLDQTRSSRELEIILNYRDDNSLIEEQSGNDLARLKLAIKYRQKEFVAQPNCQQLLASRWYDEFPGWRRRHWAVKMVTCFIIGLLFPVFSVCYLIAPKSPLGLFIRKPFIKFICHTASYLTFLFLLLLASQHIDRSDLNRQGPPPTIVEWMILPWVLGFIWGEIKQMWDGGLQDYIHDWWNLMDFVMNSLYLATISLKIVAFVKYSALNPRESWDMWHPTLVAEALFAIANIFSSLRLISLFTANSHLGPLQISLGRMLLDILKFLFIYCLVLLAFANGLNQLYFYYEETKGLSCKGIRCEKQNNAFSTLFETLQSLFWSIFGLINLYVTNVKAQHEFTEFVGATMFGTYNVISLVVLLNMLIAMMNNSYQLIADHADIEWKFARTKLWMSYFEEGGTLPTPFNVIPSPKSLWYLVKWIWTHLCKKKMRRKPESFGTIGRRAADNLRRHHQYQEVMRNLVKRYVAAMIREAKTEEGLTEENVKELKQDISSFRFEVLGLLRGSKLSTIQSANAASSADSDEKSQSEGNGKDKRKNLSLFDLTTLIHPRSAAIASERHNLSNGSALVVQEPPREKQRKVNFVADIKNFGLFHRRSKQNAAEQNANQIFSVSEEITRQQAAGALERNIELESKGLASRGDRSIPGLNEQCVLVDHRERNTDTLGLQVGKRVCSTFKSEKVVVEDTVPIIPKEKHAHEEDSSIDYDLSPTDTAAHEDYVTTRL
# Cytochrome P450 2C19 = Cytochrome P450 2C19 (Homo sapiens, UniProt P33261); test: Cytochrome panel assay with activity outcomes. Panel member name: p450-cyp2c19 Compounds with AC50 equal or less than 10 uM are considered active; format: functional; details: read-out: AC50
# Cytochrome P450 2C19, sequence (P33261 whole entry): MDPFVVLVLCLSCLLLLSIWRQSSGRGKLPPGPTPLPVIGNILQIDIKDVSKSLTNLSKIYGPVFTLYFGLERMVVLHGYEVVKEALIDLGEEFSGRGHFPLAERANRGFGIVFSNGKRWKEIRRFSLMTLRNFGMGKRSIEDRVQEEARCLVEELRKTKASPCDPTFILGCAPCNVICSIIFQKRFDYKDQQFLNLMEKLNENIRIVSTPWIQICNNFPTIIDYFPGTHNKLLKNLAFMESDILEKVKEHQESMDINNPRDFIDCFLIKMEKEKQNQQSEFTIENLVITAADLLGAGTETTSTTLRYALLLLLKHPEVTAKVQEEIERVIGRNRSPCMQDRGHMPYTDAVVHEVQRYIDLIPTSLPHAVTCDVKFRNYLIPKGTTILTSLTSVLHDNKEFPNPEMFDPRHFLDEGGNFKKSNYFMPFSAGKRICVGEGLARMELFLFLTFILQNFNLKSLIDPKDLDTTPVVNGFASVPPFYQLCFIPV
# [2] = inhibitors of intracellular T. cruzi replication, confirmation, NIH3T3 host cells, beta-gal luminescence (AID 2044); format: functional, cell-based;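 further: intracellular parasites grown in NIH/3T3 mouse fibroblasts as host cells; luminescent beta-galactosidase reporter signal from transgenic T. cruzi replicating inside host cells; inhibitors lower the luminescence signal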
# [3] = cytotoxicity toward NIH3T3 fibroblasts, dose response, counter-screen, cell-based, ATP luminescence, mouse fibroblasts (AID 2010); format: functional;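 further: cells exposed to compound for about 90 hours before reading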
# Nonstructural protein 1 = Nonstructural protein 1 (Influenza A virus, UniProt Q194T2); format: functional, Influenza A virus (A/California/07/2009(H1N1))
# Nonstructural protein 1, sequence (Q194T2 whole entry): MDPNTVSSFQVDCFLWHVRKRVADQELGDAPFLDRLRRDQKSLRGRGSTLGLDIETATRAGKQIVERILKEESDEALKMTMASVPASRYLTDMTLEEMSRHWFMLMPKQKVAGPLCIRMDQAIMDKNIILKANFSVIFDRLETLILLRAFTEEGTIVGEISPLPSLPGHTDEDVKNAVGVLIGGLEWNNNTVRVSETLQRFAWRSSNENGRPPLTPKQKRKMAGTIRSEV
# [4] = molecular target: Nuclear receptor subfamily 5 group A member 2 (Homo sapiens, UniProt O00482); format: functional, cell-based;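 further: HEK293T cells transfected with LRH-1 and a StAR promoter luciferase reporter; potency for inhibitors that lower LRH-1 driven reporter light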
# Nuclear receptor subfamily 5 group A member 2, sequence (O00482 whole entry): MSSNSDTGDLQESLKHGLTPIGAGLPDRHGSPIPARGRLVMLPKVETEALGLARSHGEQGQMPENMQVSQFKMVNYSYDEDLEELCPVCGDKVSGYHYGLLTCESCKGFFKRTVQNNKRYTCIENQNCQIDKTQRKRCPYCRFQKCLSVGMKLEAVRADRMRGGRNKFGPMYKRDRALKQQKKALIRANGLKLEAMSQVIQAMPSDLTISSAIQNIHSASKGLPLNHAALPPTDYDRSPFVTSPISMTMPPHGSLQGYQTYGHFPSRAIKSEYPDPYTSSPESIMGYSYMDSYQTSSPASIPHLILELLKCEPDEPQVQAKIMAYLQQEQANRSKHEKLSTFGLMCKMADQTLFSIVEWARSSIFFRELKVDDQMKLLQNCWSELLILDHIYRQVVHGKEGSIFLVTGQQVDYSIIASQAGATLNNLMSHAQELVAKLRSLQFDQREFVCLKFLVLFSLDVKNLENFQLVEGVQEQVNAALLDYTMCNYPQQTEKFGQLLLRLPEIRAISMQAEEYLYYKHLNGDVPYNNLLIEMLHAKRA
# [5] = test system: Streptococcus sp. 'group A'; test: growth inhibition of control SK(-) GAS strain, dose response, counter-screen for streptokinase expression inhibitor project, luminescence, kanamycin, BacTiterGlo, confirmation (AID 1900); format: functional, organism-based
# Streptococcus = test: Group A Streptococcus viability loss, dose response, counter-screen for streptokinase expression inhibitor project, luminescence, BacTiterGlo (AID 1915); format: functional, organism-based;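 further: potency for reduction of bacterial viability or growth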
# [6] = StAR promoter reporter inhibition counter-screen, dose response, counter-screen for LRH-1 inverse agonist project, cell-based, luminescence, luciferase reporter (AID 651969); format: functional
# Streptokinase A = molecular target: T2, Streptokinase A (Streptococcus pyogenes serotype M1, UniProt P10520); test: S. pyogenes streptokinase expression inhibitors, potency, dose response, plasminogen activation absorbance, OD405 (AID 1914); format: functional, Streptococcus pyogenes M1 GAS;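 further: secreted streptokinase activity via plasminogen activation per viability signal from cell pellet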
# T2 sequence (P10520 whole entry): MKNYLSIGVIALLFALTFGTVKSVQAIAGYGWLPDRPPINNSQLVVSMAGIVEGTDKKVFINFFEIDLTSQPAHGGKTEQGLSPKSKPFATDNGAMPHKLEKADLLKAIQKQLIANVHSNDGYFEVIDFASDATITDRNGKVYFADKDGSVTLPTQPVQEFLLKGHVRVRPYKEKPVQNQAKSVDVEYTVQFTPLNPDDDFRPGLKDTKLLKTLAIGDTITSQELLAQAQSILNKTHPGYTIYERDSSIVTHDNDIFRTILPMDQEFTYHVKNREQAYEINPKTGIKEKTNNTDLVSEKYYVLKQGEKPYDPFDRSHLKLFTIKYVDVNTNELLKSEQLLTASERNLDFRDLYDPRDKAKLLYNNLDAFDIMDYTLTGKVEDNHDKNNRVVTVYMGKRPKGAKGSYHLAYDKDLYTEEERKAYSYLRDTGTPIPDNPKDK
# Steroidogenic factor 1 = Steroidogenic factor 1 (Homo sapiens, UniProt Q13285); test: Counterscreen for inverse agonists of the liver receptor homolog-1 (LRH-1; NR5A2): Luminescence-based cell-based high throughput dose response assay to identify inverse agonists of the Steroidogenic Factor 1 Nuclear Receptor (SF1; NR5A1).; format: functional
# Steroidogenic factor 1, sequence (Q13285 whole entry): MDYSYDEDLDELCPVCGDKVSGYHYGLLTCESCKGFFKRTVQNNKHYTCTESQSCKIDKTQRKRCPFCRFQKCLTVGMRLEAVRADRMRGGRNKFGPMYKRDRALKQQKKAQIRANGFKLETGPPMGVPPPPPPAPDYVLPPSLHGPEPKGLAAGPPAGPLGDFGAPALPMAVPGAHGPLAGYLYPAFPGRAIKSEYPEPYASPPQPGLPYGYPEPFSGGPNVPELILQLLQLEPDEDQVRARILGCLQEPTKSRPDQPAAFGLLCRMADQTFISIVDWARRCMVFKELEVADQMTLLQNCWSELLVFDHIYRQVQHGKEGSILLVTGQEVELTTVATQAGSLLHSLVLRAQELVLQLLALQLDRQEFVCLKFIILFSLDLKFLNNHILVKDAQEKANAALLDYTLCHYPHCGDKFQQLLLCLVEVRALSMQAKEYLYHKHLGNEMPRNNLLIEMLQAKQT
# [7] = Shn3 3'UTR reporter inhibitors, dose response, cell-based, Clone20 osteoblasts, firefly luciferase, cherry-picked (AID 624132); format: functional;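 further: firefly luciferase luminescence from reporter carrying the Shn3 3'UTR in osteoblasts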
# [8] = control 3'UTR Renilla luciferase suppression, dose response, counter-screen for Shn3 inhibitor project, cell-based, Clone20-Shn3RL, cherry-picked (AID 624133); format: functional
# [9] = molecular target: Glucose-6-phosphate 1-dehydrogenase (Homo sapiens, UniProt P11413); test: human G6PD enzyme inhibitors, dose response, selectivity assay for P. falciparum G6PD inhibitor project, biochemical, fluorescence (AID 504792); format: functional
# Glucose-6-phosphate 1-dehydrogenase, sequence (P11413 whole entry): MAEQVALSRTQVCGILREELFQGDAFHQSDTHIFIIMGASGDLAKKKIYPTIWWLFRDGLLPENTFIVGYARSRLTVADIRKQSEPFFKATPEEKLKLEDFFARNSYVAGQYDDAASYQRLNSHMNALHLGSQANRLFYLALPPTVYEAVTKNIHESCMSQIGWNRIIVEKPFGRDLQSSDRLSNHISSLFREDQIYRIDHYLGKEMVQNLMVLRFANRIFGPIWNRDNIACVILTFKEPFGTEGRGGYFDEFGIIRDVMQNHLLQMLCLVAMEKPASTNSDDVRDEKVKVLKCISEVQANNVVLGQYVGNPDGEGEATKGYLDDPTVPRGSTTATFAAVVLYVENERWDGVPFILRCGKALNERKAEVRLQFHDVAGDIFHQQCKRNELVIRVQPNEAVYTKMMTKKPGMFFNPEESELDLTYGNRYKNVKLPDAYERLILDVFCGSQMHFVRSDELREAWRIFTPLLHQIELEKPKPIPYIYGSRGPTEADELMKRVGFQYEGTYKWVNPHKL
# [10] = molecular target: T3, Histone-lysine N-methyltransferase NSD2 (Homo sapiens, UniProt O96028); format: biochemical
# T3 sequence (O96028 whole entry): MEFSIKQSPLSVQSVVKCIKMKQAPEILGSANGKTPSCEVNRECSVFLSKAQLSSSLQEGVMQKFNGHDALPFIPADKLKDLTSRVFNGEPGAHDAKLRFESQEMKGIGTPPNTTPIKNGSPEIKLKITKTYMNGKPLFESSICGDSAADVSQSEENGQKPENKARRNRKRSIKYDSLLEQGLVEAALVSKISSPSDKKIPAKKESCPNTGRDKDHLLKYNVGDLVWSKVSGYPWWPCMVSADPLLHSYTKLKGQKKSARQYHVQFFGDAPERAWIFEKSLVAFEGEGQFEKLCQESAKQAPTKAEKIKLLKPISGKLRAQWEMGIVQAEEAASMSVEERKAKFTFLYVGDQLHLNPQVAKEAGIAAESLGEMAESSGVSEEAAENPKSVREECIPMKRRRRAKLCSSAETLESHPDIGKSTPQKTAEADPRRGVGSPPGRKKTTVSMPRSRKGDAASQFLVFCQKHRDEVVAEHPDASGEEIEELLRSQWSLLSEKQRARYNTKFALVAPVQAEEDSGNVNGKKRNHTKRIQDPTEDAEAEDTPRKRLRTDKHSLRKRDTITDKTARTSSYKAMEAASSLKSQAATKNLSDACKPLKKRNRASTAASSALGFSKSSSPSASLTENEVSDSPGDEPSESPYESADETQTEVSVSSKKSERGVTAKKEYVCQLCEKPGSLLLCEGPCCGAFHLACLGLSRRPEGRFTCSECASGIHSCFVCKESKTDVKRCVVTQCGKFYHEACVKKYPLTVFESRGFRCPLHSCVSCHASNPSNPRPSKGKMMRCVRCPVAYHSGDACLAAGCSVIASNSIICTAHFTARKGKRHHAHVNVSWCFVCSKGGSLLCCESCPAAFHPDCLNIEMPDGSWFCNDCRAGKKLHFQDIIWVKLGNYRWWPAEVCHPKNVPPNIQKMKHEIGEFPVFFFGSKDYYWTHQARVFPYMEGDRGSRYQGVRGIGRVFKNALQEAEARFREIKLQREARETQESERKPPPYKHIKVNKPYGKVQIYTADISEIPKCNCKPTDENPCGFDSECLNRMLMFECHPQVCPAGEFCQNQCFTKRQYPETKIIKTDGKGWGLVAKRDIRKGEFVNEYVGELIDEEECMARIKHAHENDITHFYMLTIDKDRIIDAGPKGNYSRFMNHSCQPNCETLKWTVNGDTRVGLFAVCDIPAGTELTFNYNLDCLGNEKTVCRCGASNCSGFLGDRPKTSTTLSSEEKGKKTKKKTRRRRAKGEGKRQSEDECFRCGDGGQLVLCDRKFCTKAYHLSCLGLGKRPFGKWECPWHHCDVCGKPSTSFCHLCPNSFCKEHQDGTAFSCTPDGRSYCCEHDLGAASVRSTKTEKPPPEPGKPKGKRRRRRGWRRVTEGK
# [11] = MC4R antagonists, dose response, counter-screen for LGR2 antagonist project, cell-based, plate reader, cherry pick (AID 743444); format: functional;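 further: transfected HEK 293 cells stimulated with alpha-MSH peptide; potency of inhibitors of the alpha-MSH evoked signal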
# Cytochrome P450 2D6, sequence (P10635 whole entry): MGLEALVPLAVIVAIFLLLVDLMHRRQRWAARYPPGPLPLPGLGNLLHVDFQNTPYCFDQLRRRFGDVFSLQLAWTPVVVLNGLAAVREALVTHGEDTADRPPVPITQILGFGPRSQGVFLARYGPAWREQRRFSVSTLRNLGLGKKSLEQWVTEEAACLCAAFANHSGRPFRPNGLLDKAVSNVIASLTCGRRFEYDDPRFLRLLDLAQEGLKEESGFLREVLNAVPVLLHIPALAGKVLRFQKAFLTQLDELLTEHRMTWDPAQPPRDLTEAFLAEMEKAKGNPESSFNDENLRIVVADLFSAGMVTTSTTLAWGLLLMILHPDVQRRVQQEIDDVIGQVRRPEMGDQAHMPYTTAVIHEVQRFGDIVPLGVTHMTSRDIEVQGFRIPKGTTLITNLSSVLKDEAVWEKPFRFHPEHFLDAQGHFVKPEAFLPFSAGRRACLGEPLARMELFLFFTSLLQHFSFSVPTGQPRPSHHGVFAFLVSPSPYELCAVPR
compound,measurement,setting,value
O=C(CSc1nnc(-c2ccc(Cl)cc2Cl)n1C1CCCCC1)NC1CCS(=O)(=O)C1 (stereo not drawn),AC50,Cytochrome P450 2D6,35.5 µM (inconclusive)
same,EC50,[1],1.68 µM (active)
same,AC50,Cytochrome P450 2C19,39.8 µM (inconclusive)
CN1c2ccccc2N(C)C1(C)c1cccc2ccccc12,EC50,[2],0.544 µM (active)
same,EC50,[3],> 30 µM (not active)
same,IC50,Nonstructural protein 1,39.3 µM (active)
Cc1ccc(-c2csc(NC(=O)c3ccc([N+](=O)[O-])o3)n2)cc1,EC50,[2],0.37 µM (active)
same,IC50,[4],35.9 µM (inactive)
same,EC50,[3],12.2 µM (active)
same,EC50,[5],1.89 µM (active)
same,EC50,Streptococcus,> 150 µM (not active)
same,IC50,[6],35.9 µM (inactive)
same,EC50,Streptokinase A,62.4 µM (active)
same,IC50,Steroidogenic factor 1,4.48 µM (active)
COc1ccccc1N1CCN(CCCNC(=O)Nc2ccccc2)CC1,EC50,[1],1.88 µM (active)
Fc1ccccc1COc1ccc(Br)cc1CNCC1CCCO1 (stereo not drawn),EC50,[1],0.944 µM (active)
O=C(CSc1nnc(-c2ccc(Cl)cc2Cl)n1C1CCCCC1)N1CCCC1,AC50,[7],> 70 µM (inactive)
same,EC50,[1],2.37 µM (active)
same,AC50,[8],23 µM (active)
COc1cc(CNc2ccc3[nH]c(O)nc3c2)ccc1OCc1ccccc1,IC50,[9],> 80 µM (inactive)
CN(C)c1ccc(CN2CC=C(c3ccc(F)cc3)CC2)cc1,IC50,Nonstructural protein 1,50.2 µM (active)
same,AC50,[10],> 20 µM (inactive)
O=C(CN1CCOc2ccccc21)NCc1ccc(F)cc1,AC50,[11],29.2 µM (active)
Cc1ccc(NC(=O)CSc2sc3c(O)cc(O)nc3c2C#N)c(F)c1,IC50,[4],35.9 µM (inactive)
same,IC50,[6],35.9 µM (inactive)
same,IC50,Steroidogenic factor 1,35.9 µM (inactive)
C=CCN1CCN(C(c2cccc(OC)c2OC)c2nnnn2CCC(C)C)CC1 (stereo not drawn),EC50,[1],1.68 µM (active)
O=[N+]([O-])c1ccc(C[n+]2cccc3ccc4cccnc4c32)cc1,IC50,Nonstructural protein 1,7.75 µM (active)
COc1cc(O)c(C(CCN2CCN(c3ccccc3)CC2)c2ccc(N(C)C)cc2)c(OC)c1 (stereo not drawn),IC50,Nonstructural protein 1,18.2 µM (active)
CCC(O)(c1ccc(OC)cc1)C(CN1CCOCC1)c1ccccc1 (stereo not drawn),EC50,[1],5.96 µM (active)
CCOc1cc(/C=N/n2nnnc2N)ccc1OCc1c(C)no[n+]1[O-],IC50,[4],11.8 µM (inactive)
same,IC50,[6],35.9 µM (inactive)
same,IC50,Steroidogenic factor 1,2.22 µM (active)
